How the values were obtained:
Homo sapiens [1] = experiment: Increase in P-gp-substrate 99mTc]sestaMIBI accumulation in tumor and heart of human with metastatic cancer at 150 mg, iv by imaging analysis; assay type: functional
Homo sapiens [2] = experiment: Increase in P-gp-substrate 99mTc]sestaMIBI accumulation in liver of human with metastatic cancer at 150 mg, iv by imaging analysis; assay type: functional

Compound `COc1cc2c(cc1OC)CN(CCc1ccc(NC(=O)c3cc(OC)c(OC)cc3NC(=O)c3cnc4ccccc4c3)cc1)CC2` [TARIQUIDAR] has an Activity (Homo sapiens [1]) of 36% and an Activity (Homo sapiens [2]) of 128%.

Source: ChEMBL document CHEMBL1154709, “Perspectives of P-glycoprotein modulating agents in oncology and neurodegenerative diseases: pharmaceutical, biological, and diagnostic potentials” (2010)
